US7413837B2, “Charge control agent and toner for electrostatic image development containing the same” (Orient Chemical Industries, Ltd., priority 2002, dated 2008)

Test: confirmatory test of the sublimation
Format: physicochemical
Settings: 100 mg compound mixed with 2 g resin of acid value 19 mg KOH/g in crucible, heated at 190 degrees centigrade for 1 hour
Description: Subsequently, the confirmatory test of the sublimation of the monoazo compound was performed. 100 mg of the monoazo compound and 2 g of the resin having 19 mg KOH/g of the acid value were added into a 25 mL crucible, and mixed. A filter paper was put on the crucible. After the bottom of crucible was heated at 190 degrees centigrade for 1 hour, an under side of the filter paper was observed.
Subsequently, the confirmatory test of the sublimation of the monoazo metals-compound was performed. 100 mg of the metals-compound and 2 g of the resin having 19 mg KOH/g of the acid value are added and mixed into a 25 mL crucible. A filter paper was put on the crucible. After the bottom of the crucible was heated at 190 degrees centigrade for 1 hour, the under side of the filter paper was observed.

COC(=O)Nc1cccc2ccc(O)c(N=Nc3cc(Cl)ccc3O)c12 [I-1]
sublimation property (accretions of sublimates on under side of filter paper): no sublimation property
